Where “and” joins values, the source holds several entries; their conditions need not be identical. Equal entries are not always repeated.
Experiment: solvent given as SMILES

CCCCCCCCN1c2ccc(C#Cc3ccc(F)cc3)cc2Sc2cc(C=O)ccc21
emission maximum (in C1CCOC1): 513 nm | emission maximum (in CC#N): 538 nm | emission maximum (in CCCCCC): 488 nm | emission maximum (in CO): 466 nm | emission maximum (in CS(C)=O): 542 nm | emission maximum (in Cc1ccccc1): 507 nm | emission maximum (in ClC(Cl)Cl): 539 nm

CC(C)(C)c1ccc2c(c1)c1cc(C(C)(C)C)ccc1n2-c1ccc(C#Cc2cccc(C#Cc3ccc(-n4c5ccc(C(C)(C)C)cc5c5cc(C(C)(C)C)ccc54)cc3)c2)cc1
emission maximum (in CC#N): 435 nm | emission maximum (in CCCCC): 359 nm | emission maximum (in CO): 426 nm | emission maximum (in Cc1ccccc1): 379 nm | emission maximum (in ClC(Cl)Cl): 400 nm | emission maximum (in ClCCl): 416 nm

c1cc2ccc3ccc(OP4(Oc5ccc6ccc7cccc8ccc5c6c78)=NP(Oc5ccc6ccc7cccc8ccc5c6c78)(Oc5ccc6ccc7cccc8ccc5c6c78)=NP(Oc5ccc6ccc7cccc8ccc5c6c78)(Oc5ccc6ccc7cccc8ccc5c6c78)=N4)c4ccc(c1)c2c34
emission maximum (in ClCCl): 459 nm

Fc1cccc(F)c1[B-]1(c2c(F)cccc2F)Oc2c(ccc3c4c(ccc23)C=[N+](c2ccccc2)[B-](c2c(F)cccc2F)(c2c(F)cccc2F)O4)C=[N+]1c1ccccc1
emission maximum (in Cc1ccccc1): 592 nm | emission maximum (in ClCCl): 585 nm

CCCC1(CCC)c2ccccc2-c2ccc(-c3ccc4c(c3)C(CCC)(CCC)c3cc(-c5ccc6c(c5)C(CCC)(CCC)c5ccccc5-6)ccc3-4)cc21
emission maximum (in C1CCCCC1): 396 nm

O=CC1=C(c2ccc(-c3cccs3)s2)CC1
emission maximum (in C1CCOC1): 470 nm | emission maximum (in CC#N): 493 nm | emission maximum (in CCCCCC): 464 nm | emission maximum (in CCO): 516 nm | emission maximum (in OCCOCCO): 526 nm | emission maximum (in c1ccncc1): 495 nm

COC(=O)/C(C#N)=c1\s/c(=c2/s/c(=C(/C#N)C(=O)OC)c3cc(-c4ccc(C(F)(F)F)cc4)sc23)c2sc(-c3ccc(C(F)(F)F)cc3)cc12
emission maximum (in Cc1ccccc1): 625 nm

CC(C)(C)[Si](C)(C)c1cccc2ccccc12
emission maximum (in C1CCCCC1): 329 nm

Oc1ccccc1/C=N/CC/N=C/c1ccccc1O
emission maximum (in CC#N): 461 nm

c1ccc2c(c1)c1ccccc1n2-c1ccc2cc(-c3ccc(-c4ccc(-c5cc6ccc(-n7c8ccccc8c8ccccc87)cc6o5)cc4)cc3)oc2c1
emission maximum (in Cc1ccccc1): 419 nm | emission maximum (in c1ccc2c(c1)c1ccccc1n2-c1ccc(-c2ccc(-n3c4ccccc4c4ccccc43)cc2)cc1): 441 nm

C1=Cc2nc1c(-c1cccs1)c1ccc([nH]1)c(-c1cccs1)c1nc(c(-c3cccs3)c3ccc([nH]3)c2-c2cccs2)C=C1
emission maximum (in CN(C)C=O): 665 nm | emission maximum (in ClCCl): 670 nm

COc1ccc(-c2nc(-c3ccc(-c4nc(-c5ccc(OC)cc5)c(-c5ccc(OC)cc5)[nH]4)cc3)[nH]c2-c2ccc(OC)cc2)cc1
emission maximum (in CC#N): 416.5 nm and 440 nm

N#Cc1cc(-n2c3ccccc3c3ccccc32)nc(-n2c3ccccc3c3ccccc32)n1
emission maximum (in Cc1ccccc1): 471 nm

O=C1OC(=O)c2ccc(N(c3ccccc3)c3ccc4ccc5cccc6ccc3c4c56)c3cccc1c23
emission maximum (in CCCCCC): 536 nm | emission maximum (in c1ccccc1): 605 nm

O=C(O)CCNc1cccc2ccccc12
emission maximum (in CCO): 417 nm

CC1=CC(C)=[N+]2C1=Cc1c3ccccc3c(C#Cc3ccsc3)n1[B-]2(F)F
emission maximum (in CCCCCC): 615 nm | emission maximum (in CCCCCCCCO): 621 nm | emission maximum (in CCOC(C)=O): 616 nm | emission maximum (in CN(C)C=O): 623 nm | emission maximum (in ClCCl): 628 nm

N#CC(C#N)=Cc1ccc(-c2ccc(N(c3ccccc3)c3ccccc3)cc2)cc1
emission maximum (in ClC(Cl)Cl): 634 nm

Cc1cc(=O)oc2ccc3ccc(-c4cn(Cc5ccccc5)nn4)cc3c12
emission maximum (in CCO): 420 nm

CCOC(=O)C1=C(N)n2c(=O)c3ccccc3c(=O)n2C1c1cccs1 (stereo not drawn)
emission maximum (in CS(C)=O): 439 nm

c1ccc(-c2nc3c(c4c2-c2ccccc2CC4)-c2ccccc2CC3)cc1
emission maximum (in C1CCOC1): 362 nm | emission maximum (in CC#N): 360 nm | emission maximum (in CCCCCC): 363 nm | emission maximum (in CCOC(C)=O): 359 nm | emission maximum (in CO): 362 nm | emission maximum (in CS(C)=O): 360 nm | emission maximum (in Cc1ccccc1): 361 nm | emission maximum (in ClCCl): 361 nm

C(=C\c1cc(/C=C/c2ccc(N(c3ccccc3)c3ccccc3)cc2)nc(/C=C/c2ccc(N(c3ccccc3)c3ccccc3)cc2)n1)/c1ccc(N(c2ccccc2)c2ccccc2)cc1
emission maximum (in C1CCOC1): 514 nm | emission maximum (in CC#N): 589 nm | emission maximum (in CC(C)=O): 555 nm | emission maximum (in CCCCCCC): 460 nm | emission maximum (in CS(C)=O): 586 nm | emission maximum (in Cc1ccccc1): 479 nm | emission maximum (in ClCCl): 544 nm

CCCCCCn1c2ccccc2c2cc3c4cc5c6ccccc6n(CCCCCC)c5cc4c4cc5c(C)cc(=O)oc5cc4c3cc21
emission maximum (in ClC(Cl)Cl): 415 nm

CC/[NH+]=c1\cc2oc3cc(NCCC(=O)NCC(=O)OC)c4ccccc4c3nc-2cc1C
emission maximum (in CCO): 644 nm | emission maximum (in O): 652 nm

COc1cc(OC)c2cc(-c3ccccc3CC#N)c(=O)oc2c1
emission maximum (in ClC(Cl)Cl): 422 nm

CC1=[N+]2C(=C(c3ccc(C#N)cc3)c3ccc(C)n3[B-]2(F)F)C=C1
emission maximum (in C1CCCCC1): 539 nm | emission maximum (in C1CCOC1): 540 nm | emission maximum (in CC#N): 537 nm | emission maximum (in CCOC(C)=O): 537 nm | emission maximum (in CO): 538 nm | emission maximum (in Cc1ccccc1): 543 nm | emission maximum (in ClC(Cl)Cl): 543 nm

CCCCC(CC)CN1C(=O)c2cc(Oc3ccc(C(C)(C)C)cc3)c3c4c(Cl)cc5c6c(cc(Cl)c(c7c(Oc8ccc(C(C)(C)C)cc8)cc(c2c37)C1=O)c64)C(=O)N(c1c(C(C)C)cccc1C(C)C)C5=O (stereo not drawn)
emission maximum (in Cc1ccccc1): 606 nm

CCn1c(-c2ccc(-c3ccc4c(c3)C(C)(C)c3ccccc3-4)cc2)c(-c2ccc3ccccc3c2)c(-c2ccc3ccccc3c2)c1-c1ccc(-c2ccc3c(c2)C(C)(C)c2ccccc2-3)cc1
emission maximum (in CCOC(C)=O): 442 nm

COc1ccc(N(c2ccc(OC)cc2)c2ccc(-c3ccc(-c4ccc5nc6ccccc6c(=O)n5c4)cc3)cc2)cc1
emission maximum (in ClCCl): 557 nm

Cc1ccc(C2=Cc3c4ccccc4c4ccccc4[n+]3[B-](F)(F)O2)cc1
emission maximum (in ClC(Cl)Cl): 450 nm

CC1(C)c2cc(/C=C/c3nc(/C=C/c4ccc5c(c4)C(C)(C)c4cc(N(c6ccccc6)c6ccc7ccccc7c6)ccc4-5)nc(/C=C/c4ccc5c(c4)C(C)(C)c4cc(N(c6ccccc6)c6ccc7ccccc7c6)ccc4-5)n3)ccc2-c2ccc(N(c3ccccc3)c3ccc4ccccc4c3)cc21
emission maximum (in C1CCOC1): 440 nm

COc1cccc(C2=c3c(c4ccc(C(C)(C)C)cc4c4cc(C(C)(C)C)ccc34)=[N+]3C2=C(c2ccccc2)c2c(-c4cccc(OC)c4)c4c5ccc(C(C)(C)C)cc5c5cc(C(C)(C)C)ccc5c4n2[B-]3(F)F)c1
emission maximum (in C1CCCCC1): 727 nm | emission maximum (in C1CCOC1): 737 nm | emission maximum (in CC#N): 721 nm | emission maximum (in Cc1ccccc1): 730 nm | emission maximum (in ClCCl): 737 nm

CCCCN1C(=O)c2cc(Oc3ccc(C(C)(C)C)cc3)c3c4c(Oc5ccc(C(C)(C)C)cc5)cc5c(=O)[nH]/c(=C\c6ccccn6)c6cc(Oc7ccc(C(C)(C)C)cc7)c(c7c(Oc8ccc(C(C)(C)C)cc8)cc(c2c37)C1=O)c4c56
emission maximum (in ClCCl): 652 nm

CC(C)(C)c1ccc(-n2c(-c3ccc(N(c4ccc(-c5ccc(N(c6ccc(-c7nc8c9ccccc9c9ccccc9c8n7-c7ccc(C(C)(C)C)cc7)cc6)c6ccc(-c7nc8c9ccccc9c9ccccc9c8n7-c7ccc(C(C)(C)C)cc7)cc6)cc5)cc4)c4ccc(-c5nc6c7ccccc7c7ccccc7c6n5-c5ccc(C(C)(C)C)cc5)cc4)cc3)nc3c4ccccc4c4ccccc4c32)cc1
emission maximum (in ClCCl): 430 nm

Cc1cccc(C)c1Nc1ccc(/C=C/c2ccccc2)cc1
emission maximum (in CC#N): 424 nm | emission maximum (in CCCCCC): 375 nm

From the Deep4Chem optical property database
